# Article PMC6199744, “Development of Chemical Proteomics for the Folateome and Analysis of the Kinetoplastid Folateome” (ACS Infectious Diseases, 2018)
# Tested on: L. major lysate proteins
# Assay: Multitargeted bead mixture chemoproteomics, single concentration competition, proteome-wide
# Type: binding
# Settings: for fold change / fold change relative to vehicle control: vehicle control = 1; for fold change relative to vehicle control: competition with free ligand
compound,measurement,setting,value
CCCCCCOc1cccc(Cc2cnc(N)nc2N)c1 [compound 2],fold change vs vehicle control,"protein LMJF.22.0730 HY[…], CONSERVED",1.07
same,fold change,protein LMJF.22.1460 I/6 AUTOANTIGEN-LIKE PROTEIN,1.1
same,fold change vs vehicle control,"protein LMJF.22.1540 ALANYL-TRNA SYNTHETASE, PUTATIVE",1.04
same,fold change vs vehicle control,"protein LMJF.23.0370 […] OXIDASE SUBUNIT 10, PUTATIVE",1.09
same,fold change,protein LMJF.23.0830 NA/H ANTIPORTER-LIKE PROTEIN,0.96
same,fold change,"protein LMJF.23.1020 HY[…], UNKNOWN FUNCTION",1.14
same,fold change,"protein LMJF.23.1220 T-COMPLEX PROTEIN 1, GAMMA SUBUNIT, PUTATIVE",1.08
same,fold change vs vehicle control,protein LMJF.24.0140 ANKYRIN/TPR REPEAT PROTEIN,1.09
same,fold change,protein LMJF.24.0280 DYNEIN INTERMEDIATE-CHAIN-LIKE PROTEIN,0.94
same,fold change,"protein LMJF.24.0770 MALIC ENZYME, PUTATIVE",1.06
same,fold change relative to vehicle control,"protein LMJF.24.1510 IGE-DEPENDENT HISTAMINE-RELEASING FACTOR, PUTATIVE",1.53
same,fold change vs vehicle control,"protein LMJF.24.1630, SUCCINATE DEHYDROGENASE FLAVOPROTEIN, PUTATIVE",1
same,fold change vs vehicle control,"protein LMJF.24.1840 LYSOPHOSPHOLIPASE, PUTATIVE",1.01
same,fold change relative to vehicle control,protein LMJF.24.2060 TRANSKETOLASE,0.99
same,fold change,"protein LMJF.24.2250 FATTY-ACID DESATURASE, PUTATIVE",1.01
same,fold change vs vehicle control,"protein LMJF.25.0120 ELECTRON TRANSFER FLAVOPROTEIN, PUTATIVE",1.07
same,fold change vs vehicle control,"protein LMJF.25.0260 DYNEIN LIGHT CHAIN 1, CYTOPLASMIC, PUTATIVE",1.15
same,fold change relative to vehicle control,protein LMJF.25.0910 CYCLOPHILIN A,1.57
same,fold change vs vehicle control,"protein LMJF.25.1180, ATPASE BETA SUBUNIT, PUTATIVE",1.17
same,fold change,"protein LMJF.25.1610 HY[…], CONSERVED",1.09
same,fold change,"protein LMJF.25.1620 HY[…], CONSERVED",1.15
same,fold change vs vehicle control,protein LMJF.26.1240 HEAT SHOCK PROTEIN 70-RELATED PROTEIN,1.01
same,fold change vs vehicle control,"protein LMJF.26.1710 […] OXIDASE SUBUNIT V, PUTATIVE",1.08
same,fold change vs vehicle control,"protein LMJF.26.1960 HY[…], CONSERVED",1.05
same,fold change vs vehicle control,"protein LMJF.26.2000 HYPOTHETICAL PROTEIN, CONSERVED",1.23
same,fold change vs vehicle control,"protein LMJF.27.0420 RIBOKINASE, PUTATIVE",1.18
same,fold change vs vehicle control,"protein LMJF.27.1060 CYSTEINE DESULFURASE, PUTATIVE",0.93
same,fold change,"protein LMJF.27.1310 ARGINYL-TRNA SYNTHETASE, PUTATIVE",0.98
same,fold change vs vehicle control,"protein LMJF.27.2400 HEAT SHOCK PROTEIN DNAJ, PUTATIVE",0.96
same,fold change vs vehicle control,"protein LMJF.28.0110 […] 3 SUBUNIT, PUTATIVE",1.07
same,fold change vs vehicle control,"protein LMJF.28.0930 HY[…], CONSERVED",1.12
same,fold change vs vehicle control,"protein LMJF.28.0950 HY[…], CONSERVED",1.03
same,fold change vs vehicle control,"protein LMJF.28.1950 X-PRO, DIPEPTIDYL-PEPTIDASE,SERINE PEPTIDASE, CLAN SC, FAMILY S15, PUTATIVE",1.13
same,fold change relative to vehicle control,"protein LMJF.28.2770 HEAT-SHOCK PROTEIN HSP70, PUTATIVE",1.25
same,fold change,"protein LMJF.29.0060 TRYPTOPHANYL-TRNA SYNTHETASE, PUTATIVE",1.06
same,fold change,protein LMJF.29.0820 CYSTEINE PEPTIDASE C (CPC),0.82
same,fold change relative to vehicle control,"protein LMJF.29.0850 HIGH MOBILITY GROUP PROTEIN HOMOLOG TDP-1, PUTATIVE",1.3
same,fold change vs vehicle control,protein LMJF.29.1160 TRYPAREDOXIN,1.04
same,fold change,"protein LMJF.29.1760 PARAFLAGELLAR ROD PROTEIN 1D, PUTATIVE",0.97
same,fold change vs vehicle control,"protein LMJF.29.1780 DIPHTHAMIDE SYNTHESIS PROTEIN, PUTATIVE",0.98
same,fold change vs vehicle control,"protein LMJF.29.2240 AMINOPEPTIDASE, PUTATIVE",1.11
same,fold change,protein LMJF.29.2310 ENOYL-COA HYDRATASE/ISOMERASE-LIKE PROTEIN,1.08
same,fold change,protein LMJF.29.2860 40S RIBOSOMAL PROTEIN S19-LIKE PROTEIN,1.19
same,fold change vs vehicle control,"protein LMJF.30.0850 SURFACE PROTEIN AMASTIN, PUTATIVE",1.16
same,fold change,"protein LMJF.30.1250 PYRIDOXAL KINASE, PUTATIVE",1.01
same,fold change vs vehicle control,protein LMJF.30.3190 3-HYDROXY-3-METHYLGLUTARYL-COA REDUCTASE,1.04
same,fold change vs vehicle control,protein LMJF.30.3520 S-ADENOSYL[…],1.05
same,fold change vs vehicle control,"protein LMJF.31.0440 CYTOSKELETON-[…] CAP5 5, PUTATIVE",1
same,fold change,"protein LMJF.31.1130 N-ACYL-L-AMINO ACID AMIDOHYDROLASE, PUTATIVE",0.8
same,fold change vs vehicle control,protein LMJF.31.1640 THIOLASE PROTEIN-LIKE PROTEIN,1.14
same,fold change,protein LMJF.31.1800 AMINO ACID PERMEASE,1.08
same,fold change,"protein LMJF.31.2250 3,2-TRANS-ENOYL-COA ISOMERASE, MIT[…], PUTATIVE",0.92
same,fold change vs vehicle control,"protein LMJF.31.2790 ADP-RI[…], PUTATIVE",1.1
same,fold change,protein LMJF.31.3130 […]-COA CARBOXYLASE BIOTINYLATED […]-LIKE PROTEIN,1.03
same,fold change,"protein LMJF.32.0010 HYPOTHETICAL PROTEIN, CONSERVED",0.82
same,fold change vs vehicle control,"protein LMJF.32.0400 ATP-DEPENDENT RNA HELICASE, PUTATIVE",1.03
same,fold change vs vehicle control,"protein LMJF.32.0520 PROFILIN, PUTATIVE",1
same,fold change,"protein LMJF.32.1000 […]-COMPLEX PROTEIN, PUTATIVE",1.02
same,fold change vs vehicle control,"protein LMJF.32.3010 HYPOTHETICAL PROTEIN, CONSERVED,LEUCINE-RICH REPEAT PROTEIN, PUTATIVE",0.99
same,fold change vs vehicle control,protein LMJF.32.3870 MYOSIN XXI,0.91
same,fold change vs vehicle control,"protein LMJF.33.0890, HY[…], CONSERVED",1.05
same,fold change vs vehicle control,"protein LMJF.33.1070 HY[…], UNKNOWN FUNCTION",1.03
same,fold change,"protein LMJF.33.1330 CYSTEINE CONJUGATE BETA-LYASE, AMINOTRANSFERASE- LIKE PROTEIN",1.33
same,fold change,"protein LMJF.33.1610 PEPTIDASE M20/M25/M40, PUTATIVE",1
same,fold change relative to vehicle control,"protein LMJF.33.1630 CYCLOPHILIN 4, PUTATIVE",1.35
same,fold change vs vehicle control,"protein LMJF.33.2300 UDP-GLC 4'-EPIMERASE, PUTATIVE",1.15
same,fold change vs vehicle control,"protein LMJF.33.2390 HEAT SHOCK PROTEIN, PUTATIVE",1.12
same,fold change,"protein LMJF.33.2410 HY[…], CONSERVED",1.02
same,fold change,"protein LMJF.33.3150 40S RIBOSOMAL PROTEIN S13, PUTATIVE",1.22
same,fold change,"protein LMJF.34.3500 RUVB-LIKE 1 DNA HELICASE, PUTATIVE",1.2
same,fold change,"protein LMJF.34.3670 VACUOLAR ATP SYNTHASE CATALYTIC SUBUNIT A, PUTATIVE",1.09
same,fold change,protein LMJF.34.3740 SERINE PALMITOYLTRANSFERASE-LIKE PROTEIN,0.95
same,fold change,"protein LMJF.34.4120 HYPOTHETICAL PROTEIN, CONSERVED",0.91
same,fold change vs vehicle control,"protein LMJF.34.4370 20S […] 7 SUBUNIT, (PUTATIVE)",1.06
same,fold change,"protein LMJF.35.0370 ATP-DEPENDENT DEAD-BOX RNA HELICASE, PUTATIVE",1.03
same,fold change vs vehicle control,"protein LMJF.35.1380, MIT[…], BETA SUBUNIT, PUTATIVE",1.09
same,fold change vs vehicle control,"protein LMJF.35.1410 THREONYL-TRNA SYNTHETASE, PUTATIVE",0.97
same,fold change vs vehicle control,"protein LMJF.35.1720 CYCLOPHILIN 14, PUTATIVE",1.13
same,fold change,"protein LMJF.35.2500 HY[…], CONSERVED",1.03
same,fold change,"protein LMJF.35.2730 ACYL-COA DEHYDROGENASE, PUTATIVE",1.02
same,fold change relative to vehicle control,"protein LMJF.35.3010 […],TRYPANOTHIONE-DEPENDENT […]",1.16
same,fold change vs vehicle control,"protein LMJF.35.3100 ATP-DEPENDENT RNA HELICASE, PUTATIVE",1.09
same,fold change vs vehicle control,protein LMJF.35.3340 6-phosphogluconate dehydrogenase,1.05
same,fold change,"protein LMJF.35.3700 GIM5A PROTEIN, PUTATIVE,[…] PROTEIN",1.04
same,fold change vs vehicle control,"protein LMJF.35.3840 PROTEASOME BETA 2 SUBUNIT, PUTATIVE",0.82
same,fold change vs vehicle control,"protein LMJF.35.3860 T-COMPLEX PROTEIN 1, ETA SUBUNIT, PUTATIVE",1.06
same,fold change,"protein LMJF.35.4550 HYPOTHETICAL PROTEIN, CONSERVED",0.88
same,fold change,protein LMJF.35.4770 CYCLOPHILIN 40,0.93
same,fold change,"protein LMJF.35.4850 PROTEASOME ALPHA 1 SUBUNIT, PUTATIVE",1.1
same,fold change,"protein LMJF.35.4860 HYPOTHETICAL PROTEIN, CONSERVED",0.97
same,fold change relative to vehicle control,"protein LMJF.35.5330 ISOPENTENYL-D[…]-ISOMERASE, PUTATIVE,ISOMERASE, PUTATIVE",1.17
same,fold change vs vehicle control,protein LMJF.36.0180 ELONGATION FACTOR 2,1.2
same,fold change vs vehicle control,"protein LMJF.36.0620 HYPOTHETICAL PROTEIN, CONSERVED",1.47
same,fold change vs vehicle control,"protein LMJF.36.0990 40S RIBOSOMAL PROTEIN S10, PUTATIVE",1.17
same,fold change vs vehicle control,"protein LMJF.36.2020 CHAPERONIN HSP60, MIT[…]",1.01
same,fold change vs vehicle control,"protein LMJF.36.3460 HYPOTHETICAL PROTEIN, CONSERVED",0.88
same,fold change,"protein LMJF.36.3760 60S RIBOSOMAL PROTEIN L10A, PUTATIVE",1.2
same,fold change vs vehicle control,"protein LMJF.36.3840 GLYCYL TRNA SYNTHETASE, PUTATIVE",1.06
same,fold change vs vehicle control,"protein LMJF.36.4170 OXIDOREDUCTASE, PUTATIVE",1.05
same,fold change vs vehicle control,"protein LMJF.36.5010 40S RIBOSOMAL PROTEIN SA, PUTATIVE",1.14
same,fold change,"protein LMJF.36.5390 PHOSPHORIBOSYLPYROPHOSPHATE SYNTHETASE, PUTATIVE",0.96
same,fold change vs vehicle control,"protein LMJF.36.5620 ISOLEUCYL-TRNA SYNTHETASE, PUTATIVE",1.15
same,fold change vs vehicle control,protein LMJF.36.6430 PROTEIN TRANSPORT PROTEIN SEC23-LIKE PROTEIN,1.05
same,fold change,"protein LMJF.36.6760 HYPOTHETICAL PROTEIN, CONSERVED",1.1
same,fold change vs vehicle control,"protein LMJF.36.6910 T-COMPLEX PROTEIN 1, THETA SUBUNIT, PUTATIVE",1.05
same,fold change vs vehicle control,protein LMJF.36.6940 disulfide isomerase PDI,1.3
same,fold change vs vehicle control,"protein LMJF.[…] […] EXOPOLYPHOSPHATASE, PUTATIVE",0.78
